Assay results taken from PubChem BioAssay (NCI).
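In this assay, cells in 96-well plates receive the compound at five concentrations for 48 hours. Endpoints are linearly interpolated between the surrounding concentrations. TGI is the concentration that stops growth completely.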

Experiments:
Experiment in all cases: NCI-60 cell line screen, 48 h
SK-OV-3 ovarian = tested on: SK-OV-3 ovarian
A549 NSCLC = tested on: A549 NSCLC
M14 melanoma = tested on: M14 melanoma
SNB-19 CNS = tested on: SNB-19 CNS
K-562 leukemia = tested on: K-562 leukemia
MOLT-4 leukemia = tested on: MOLT-4 leukemia
HCT-15 colon = tested on: HCT-15 colon
OVCAR-8 ovarian = tested on: OVCAR-8 ovarian
IGROV1 ovarian = tested on: IGROV1 ovarian
786-0 renal = tested on: 786-0 renal
TK-10 renal = tested on: TK-10 renal
HS 578T breast = tested on: HS 578T breast

Structure (SMILES)	TGI (SK-OV-3 ovarian) [µM]	TGI (A549 NSCLC) [µM]	TGI (M14 melanoma) [µM]	TGI (SNB-19 CNS) [µM]	TGI (K-562 leukemia) [µM]	TGI (MOLT-4 leukemia) [µM]	TGI (HCT-15 colon) [µM]	TGI (OVCAR-8 ovarian) [µM]	TGI (IGROV1 ovarian) [µM]	TGI (786-0 renal) [µM]	TGI (TK-10 renal) [µM]	TGI (HS 578T breast) [µM]
CC12CCC(=O)N1c1ccc([N+](=O)[O-])cc1N2 (stereo not drawn)	> 100	> 100	> 100	> 100	> 100	> 100	> 100	> 100	> 100	> 100	–	–
CCCCC1(C)C=C/C(=C2/C(=O)O/C(=C\C(=O)O)C2=O)O1 (stereo not drawn)	> 100	> 100	> 100	> 100	> 100	> 100	> 100	> 100	> 100	> 100	> 100	–
COc1c(=O)cc2cc[nH]c3ccn(C)c1c23	> 100	> 100	> 100	> 100	> 100	> 100	> 100	> 100	> 100	> 100	> 100	> 100
Fc1ccc(N2C(=S)SC(=Nc3ccccc3)C2=Nc2ccccc2)cc1	> 100	> 100	> 100	> 100	> 100	> 100	> 100	> 100	> 100	> 100	> 100	> 100
Nc1c([N+](=O)[O-])nc(Cl)c2nncn12	> 100	> 100	> 100	> 100	> 100	> 100	42.4	> 100	> 100	> 100	> 100	–
CC1(c2ccccc2Cl)C(C#N)C(=O)NC(=O)C1C#N (stereo not drawn)	> 100	> 100	> 100	92.8	> 100	> 100	> 100	> 100	> 100	> 100	> 100	–
CCOC(=O)C1(F)S(=O)(=O)OCCOS1(=O)=O	> 100	> 100	> 100	> 100	–	> 100	> 100	> 100	–	> 100	> 100	> 100
[O-]c1c2cc(-[n+]3c(-c4ccccc4)cc(-c4ccccc4)cc3-c3ccccc3)cc1COCCOCCOCCOCCOC2	> 100	> 100	> 100	> 100	> 100	> 100	> 100	> 100	–	> 100	> 100	–
O=C(c1nc2ccccc2[nH]c1=O)C(O)c1ccccc1 (stereo not drawn)	> 100	> 100	> 100	> 100	> 100	> 100	> 100	> 100	> 100	> 100	> 100	–
CC(=O)OCCOCNC(=S)N/N=C/c1cc(Br)cs1	> 100	> 100	> 100	> 100	> 100	> 100	> 100	> 100	> 100	> 100	> 100	–
CC1(C)CC(=O)C(/C(=N/NC(=S)NN)C(=O)Nc2nc3ccc([N+](=O)[O-])cc3s2)C(=O)C1	> 100	> 100	> 100	> 100	> 100	> 100	> 100	> 100	> 100	> 100	> 100	–
COc1ccc(CCC2c3cc(OC)c(OC)cc3CCN2C)cc1OC (stereo not drawn)	> 100	> 100	> 100	> 100	> 100	> 100	> 100	> 100	> 100	> 100	> 100	–
O=C(CCC1C(=O)NC(=S)NC1=O)c1ccc2ccccc2c1	> 100	> 100	> 100	> 100	> 100	> 100	> 100	> 100	> 100	> 100	> 100	–
NC1CC(=O)c2c1sc(Cl)c2Cl (stereo not drawn)	> 100	> 100	> 100	> 100	> 100	> 100	> 100	> 100	> 100	> 100	> 100	–
CC1(C)CC[C@]2(C)CC[C@]3(C)C(=CC[C@@H]4[C@@]5(C)CCC(=O)C(C)(C)[C@@H]5[C@H](O)C[C@]43C)[C@@H]2C1	31.7	54.3	40.7	30.6	–	> 100	39.3	34.3	32.1	30.9	30.1	36.8
CCOC(=O)NNC(=O)NCc1cccc(CNC(=O)NNC(=O)OCC)c1	> 100	> 100	> 100	> 100	> 100	> 100	> 100	> 100	–	> 100	> 100	> 100
C/C=C/C#CC#C/C=C/C=C/C(O)CCO (stereo not drawn)	> 23.1	> 23.1	> 23.1	> 23.1	> 23.1	> 23.1	> 23.1	> 23.1	> 23.1	> 23.1	> 23.1	–
COC(=O)C(CCSC)NC(=O)CNC(=O)CSc1nnc(COc2ccc(Cl)cc2)n1-c1ccccc1 (stereo not drawn)	34	> 100	33.6	> 100	> 100	> 100	37.8	–	30.2	29.5	31.4	53.1
COC(=O)c1ccc(S)c(S(=O)(=O)Nc2n[nH]c(N)n2)c1	–	> 100	> 100	> 100	> 100	> 100	> 100	> 100	> 100	> 100	> 100	> 100
